Experimental data: article PMC8222254, “Self-assembly of an anion receptor with metal-dependent kinase inhibition and potent in vitro anti-cancer properties” (Nature Communications, 2021)
Several values for one entry are separate records, joined by “and”; a condition that tells them apart may be missing. Identical values can stand only once.

How the values were obtained:
Assay in all cases: Kinase inhibition screen, cell-free 33P ATP assay at 10 μM
Type in all cases: biochemical
[1] = biological target: 140 purified human kinases (Homo sapiens, UniProt P41240); details: CSK
Sequence of 140 purified human kinases (Homo sapiens, UniProt P41240) (P41240 whole entry): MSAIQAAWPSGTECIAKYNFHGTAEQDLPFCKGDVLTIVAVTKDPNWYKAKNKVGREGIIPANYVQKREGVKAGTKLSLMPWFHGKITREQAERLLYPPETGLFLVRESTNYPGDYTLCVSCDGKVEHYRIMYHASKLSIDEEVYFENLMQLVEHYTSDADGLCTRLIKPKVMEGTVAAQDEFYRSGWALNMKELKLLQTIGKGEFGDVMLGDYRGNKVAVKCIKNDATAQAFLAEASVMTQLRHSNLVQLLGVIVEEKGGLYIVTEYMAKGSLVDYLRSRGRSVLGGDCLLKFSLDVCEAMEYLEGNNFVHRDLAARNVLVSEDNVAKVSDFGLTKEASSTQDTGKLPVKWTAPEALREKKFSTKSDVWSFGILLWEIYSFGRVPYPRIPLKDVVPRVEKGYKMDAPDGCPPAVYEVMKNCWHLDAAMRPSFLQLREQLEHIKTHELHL
Summary of the method: (§1)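 Each complex tested in duplicate at 10 μM; cell-free radiometric assay using ^33P ATP on purified enzymes. Hits mapped by HGNC symbol onto the kinome tree.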

[2] = biological target: 140 purified human kinases (Homo sapiens, UniProt P49760)
Sequence of 140 purified human kinases (Homo sapiens, UniProt P49760) (P49760 whole entry): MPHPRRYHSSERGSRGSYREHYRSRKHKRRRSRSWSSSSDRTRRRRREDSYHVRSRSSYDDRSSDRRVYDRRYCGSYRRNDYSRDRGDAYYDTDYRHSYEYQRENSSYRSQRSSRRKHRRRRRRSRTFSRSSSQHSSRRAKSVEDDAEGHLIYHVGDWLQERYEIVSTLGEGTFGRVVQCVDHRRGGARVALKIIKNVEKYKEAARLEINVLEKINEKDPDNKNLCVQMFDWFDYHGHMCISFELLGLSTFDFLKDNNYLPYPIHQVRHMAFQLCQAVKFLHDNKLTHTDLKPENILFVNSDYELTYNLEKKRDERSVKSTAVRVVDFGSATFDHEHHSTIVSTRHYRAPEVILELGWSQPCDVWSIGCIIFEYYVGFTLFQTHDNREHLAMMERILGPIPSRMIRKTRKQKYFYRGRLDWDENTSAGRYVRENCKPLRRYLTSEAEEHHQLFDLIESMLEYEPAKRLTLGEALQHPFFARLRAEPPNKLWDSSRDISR
Summary of the method: as §1

[3] = biological target: 140 purified human kinases (Homo sapiens, UniProt P49841); details: GSK3b
Sequence of 140 purified human kinases (Homo sapiens, UniProt P49841) (P49841 whole entry): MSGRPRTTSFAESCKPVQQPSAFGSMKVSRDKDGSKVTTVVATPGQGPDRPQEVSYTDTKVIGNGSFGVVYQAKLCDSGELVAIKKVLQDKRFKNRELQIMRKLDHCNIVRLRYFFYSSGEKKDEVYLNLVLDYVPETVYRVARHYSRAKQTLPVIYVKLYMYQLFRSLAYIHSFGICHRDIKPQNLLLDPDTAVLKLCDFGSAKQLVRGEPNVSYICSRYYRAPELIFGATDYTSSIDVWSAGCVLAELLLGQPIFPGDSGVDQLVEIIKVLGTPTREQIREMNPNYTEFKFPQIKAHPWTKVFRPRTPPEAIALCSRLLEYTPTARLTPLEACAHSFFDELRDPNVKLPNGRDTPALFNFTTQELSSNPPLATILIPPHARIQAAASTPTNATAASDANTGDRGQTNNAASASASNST
Summary of the method: as §1

[4] = biological target: T1, 140 purified human kinases (Homo sapiens, UniProt Q05513); details: PKCz; for % Activity inhibition Mean / % Activity inhibition Run 1 / % Activity inhibition Run 2 / % Activity remaining Run 1 / % Activity remaining Run 2: 10 µM
T1 sequence (Q05513 1-592): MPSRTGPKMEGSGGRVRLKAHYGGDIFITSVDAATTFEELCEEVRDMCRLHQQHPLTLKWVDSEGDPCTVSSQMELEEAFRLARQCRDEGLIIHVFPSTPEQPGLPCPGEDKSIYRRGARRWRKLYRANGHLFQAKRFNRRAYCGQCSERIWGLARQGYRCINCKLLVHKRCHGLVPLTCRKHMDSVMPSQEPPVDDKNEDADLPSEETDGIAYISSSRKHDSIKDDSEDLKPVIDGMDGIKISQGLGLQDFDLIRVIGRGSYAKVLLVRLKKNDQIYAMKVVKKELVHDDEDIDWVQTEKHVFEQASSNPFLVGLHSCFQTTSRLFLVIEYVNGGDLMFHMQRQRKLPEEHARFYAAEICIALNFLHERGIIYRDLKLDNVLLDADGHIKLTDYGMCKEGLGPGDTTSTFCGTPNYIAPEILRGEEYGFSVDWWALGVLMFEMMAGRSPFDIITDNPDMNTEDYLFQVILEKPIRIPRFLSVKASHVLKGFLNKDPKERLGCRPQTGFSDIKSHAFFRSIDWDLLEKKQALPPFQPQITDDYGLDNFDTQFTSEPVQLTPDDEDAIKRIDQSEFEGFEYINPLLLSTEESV
Summary of the method: as §1

[5] = biological target: 140 purified human kinases (Homo sapiens, UniProt Q13627); details: DYRK1A
Summary of the method: as §1

[6] = biological target: 140 purified human kinases (Homo sapiens, UniProt Q16816); details: PHK
Sequence of 140 purified human kinases (Homo sapiens, UniProt Q16816) (Q16816 whole entry): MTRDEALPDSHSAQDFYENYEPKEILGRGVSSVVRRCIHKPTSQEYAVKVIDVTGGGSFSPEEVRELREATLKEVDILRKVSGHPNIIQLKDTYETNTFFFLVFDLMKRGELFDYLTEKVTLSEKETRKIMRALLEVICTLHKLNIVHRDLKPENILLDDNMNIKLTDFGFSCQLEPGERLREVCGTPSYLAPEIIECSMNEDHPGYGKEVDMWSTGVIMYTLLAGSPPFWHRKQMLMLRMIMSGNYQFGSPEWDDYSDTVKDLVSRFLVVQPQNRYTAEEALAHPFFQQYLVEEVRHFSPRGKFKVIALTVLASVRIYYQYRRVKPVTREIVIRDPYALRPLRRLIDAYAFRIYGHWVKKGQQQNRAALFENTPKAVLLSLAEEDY
Summary of the method: as §1

[7] = biological target: T2, 140 purified human kinases (Homo sapiens, UniProt Q8IWQ3)
T2 sequence (Q8IWQ3 1-736): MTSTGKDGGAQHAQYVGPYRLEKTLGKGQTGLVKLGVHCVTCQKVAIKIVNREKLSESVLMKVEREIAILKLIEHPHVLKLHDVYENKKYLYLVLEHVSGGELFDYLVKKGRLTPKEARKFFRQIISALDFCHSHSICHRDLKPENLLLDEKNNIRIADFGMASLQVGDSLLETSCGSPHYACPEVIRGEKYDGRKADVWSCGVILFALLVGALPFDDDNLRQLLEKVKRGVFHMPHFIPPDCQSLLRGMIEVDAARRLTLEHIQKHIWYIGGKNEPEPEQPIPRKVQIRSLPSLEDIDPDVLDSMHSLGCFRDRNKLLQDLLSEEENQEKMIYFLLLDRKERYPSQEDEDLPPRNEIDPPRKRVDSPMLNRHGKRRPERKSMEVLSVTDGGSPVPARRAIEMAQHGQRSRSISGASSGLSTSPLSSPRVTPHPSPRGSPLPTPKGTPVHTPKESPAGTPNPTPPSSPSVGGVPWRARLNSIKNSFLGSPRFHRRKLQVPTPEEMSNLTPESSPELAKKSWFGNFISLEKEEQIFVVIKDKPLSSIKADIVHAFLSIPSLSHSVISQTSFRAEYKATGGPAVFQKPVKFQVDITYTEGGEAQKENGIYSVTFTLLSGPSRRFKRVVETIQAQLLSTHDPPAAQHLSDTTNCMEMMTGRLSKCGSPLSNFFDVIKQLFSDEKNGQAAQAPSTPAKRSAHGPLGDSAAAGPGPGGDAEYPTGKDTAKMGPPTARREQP
Summary of the method: as §1

In the case of `CC(=O)[O-].CC(=O)[O-].CC(=O)[O-].CC(=O)[O-].CC(=O)[O-].CC(=O)[O-].[Zn+2].[Zn+2].[Zn+2].c1ccc(-c2csc(NCCN(CCNc3nc(-c4ccccn4)cs3)CCNc3nc(-c4ccccn4)cs3)n2)nc1.c1ccc(-c2csc(NCCN(CCNc3nc(-c4ccccn4)cs3)CCNc3nc(-c4ccccn4)cs3)n2)nc1` [[L2Zn3]6+], the “% Inhibition, Mean” value [1] is reported as 8%, the mean % activity [1] is reported as 92% and the “% activity” value ([1]; duplicate runs) is reported as 82% and 102%. For the same molecule, the “% Inhibition, Mean” value ([2]; CLK2) was 44%, the “% Inhibition, Run 1 / Run 2” value ([2]; CLK2) was 43% and 45% and the mean % activity ([2]; CLK2) was 56%. The “% activity” value ([2]; CLK2, duplicate runs) was 57% and 55%, the “% Inhibition, Mean” value [3] was 16% and the “% Inhibition, Run 1 / Run 2” value [3] was 20% and 11%. For the same molecule, the mean % activity [3] was 84%, the “% activity” value ([3]; duplicate runs) was 80% and 89% and the “% Inhibition, Mean” value [4] was 88%. For the same molecule, the “% Inhibition, Run 1 / Run 2” value [4] was 89% and 87%, the mean % activity [4] was 12% and the “% Activity inhibition Mean” value [4] was 88.0%. For the same molecule, the “% Activity inhibition Run 1” value [4] was 89%, the “% Activity inhibition Run 2” value [4] was 87% and the “% Activity remaining Run 1” value [4] was 11%. The “% Activity remaining Run 2” value [4] was 13%, the “% activity” value ([4]; duplicate runs) was 11% and 13% and the “% Inhibition, Mean” value [5] was 28%. For the same molecule, the “% Inhibition, Run 1 / Run 2” value [5] was 34% and 22%, the mean % activity [5] was 72% and the “% activity” value ([5]; duplicate runs) was 67% and 78%. For the same molecule, the “% Inhibition, Mean” value [6] was 64%, the mean % activity [6] was 36% and the “% activity” value ([6]; duplicate runs) was 32% and 39%. The “% Inhibition, Mean” value ([7]; BRSK2) was 37%, the “% Inhibition, Run 1 / Run 2” value ([7]; BRSK2) was 44% and 30% and the mean % activity ([7]; BRSK2) was 63%. The “% activity” value ([7]; BRSK2, duplicate runs) was 56% and 70%.

With `[Cu+2].[Cu+2].[Cu+2].c1ccc(-c2csc(NCCN(CCNc3nc(-c4ccccn4)cs3)CCNc3nc(-c4ccccn4)cs3)n2)nc1.c1ccc(-c2csc(NCCN(CCNc3nc(-c4ccccn4)cs3)CCNc3nc(-c4ccccn4)cs3)n2)nc1` [[L2Cu3]6+] the “% Inhibition Run 1” value [1] was 11.5%, the “% Inhibition Run 2” value [1] was 10.8% and the “% Inhibition, Mean” value [1] was 11%. For the same molecule, the mean % activity [1] was 89%, the “% activity” value ([1]; Run 1) was 88.5% and the “% activity” value ([1]; Run 2) was 89.2%. The “% Activation, Mean value” ([2]; CLK2) was 3%, the “% Inhibition Run 1” value ([2]; CLK2) was -9.8% and the “% Inhibition Run 2” value ([2]; CLK2) was 3.9%. The “% Inhibition, Mean” value ([2]; CLK2) was -3%, the mean % activity ([2]; CLK2) was 103% and the “% activity” value ([2]; CLK2, Run 1) was 109.8%. For the same molecule, the “% activity” value ([2]; CLK2, Run 2) was 96.1%, the “% Inhibition Run 1” value [3] was 28.4% and the “% Inhibition Run 2” value [3] was 32.5%. The “% Inhibition, Mean” value [3] was 30%, the mean % activity [3] was 70% and the “% activity” value ([3]; Run 1) was 71.6%. For the same molecule, the “% activity” value ([3]; Run 2) was 67.5%, the “% Inhibition Run 1” value [4] was 92.5% and the “% Inhibition Run 2” value [4] was 95.1%. For the same molecule, the “% Inhibition, Mean” value [4] was 94%, the mean % activity [4] was 6% and the “% activity” value ([4]; Run 1) was 7.5%. For the same molecule, the “% activity” value ([4]; Run 2) was 4.9%, the “% Activity inhibition Mean” value [4] was 93.8% and the “% Activity inhibition Run 1” value [4] was 92.5%. For the same molecule, the “% Activity inhibition Run 2” value [4] was 95.1%, the “% Activity remaining Run 1” value [4] was 7.50% and the “% Activity remaining Run 2” value [4] was 4.90%. For the same molecule, the “% Inhibition Run 1” value [5] was 18.5%, the “% Inhibition Run 2” value [5] was 12.4% and the “% Inhibition, Mean” value [5] was 15%. The mean % activity [5] was 85%, the “% activity” value ([5]; Run 1) was 81.5% and the “% activity” value ([5]; Run 2) was 87.6%. The “% Inhibition Run 1” value [6] was 59.9%, the “% Inhibition Run 2” value [6] was 49.3% and the “% Inhibition, Mean” value [6] was 55%. For the same molecule, the mean % activity [6] was 45%, the “% Inhibition Run 1” value ([7]; BRSK2) was 77.8% and the “% Inhibition Run 2” value ([7]; BRSK2) was 75.3%. For the same molecule, the “% Inhibition, Mean” value ([7]; BRSK2) was 77%, the mean % activity ([7]; BRSK2) was 23% and the “% activity” value ([7]; BRSK2, Run 1) was 22.2%. The “% activity” value ([7]; BRSK2, Run 2) was 24.7%.
